In US10858397B2, “Peptide inhibitors of telomerase translocation and therapeutic uses thereof” (THE MEDICAL COLLEGE OF WISCONSIN, INC., priority 2015, dated 2020):
Where a SMILES comes first, the peptide text is derived from it. Primed or numbered codes have the meaning given here. The star is where a group is joined. PEG12′ = C-terminal PEG12 polyethylene glycol (PEGylation) moiety, followed by a C-terminal amide; 5FAM = O=C1OC2(c3ccc(O)cc3Oc3cc(O)ccc32)c2ccc(C(=O)*)cc21

Experiments:
[1] = test system: human microvessels; assay: Flow-mediated dilation (FMD) of isolated human microvessels with or without ANG II challenge; details: for baseline vessel constriction, % of maximum diameter: after 10 minutes of ET-1 treatment; for protection of flow-mediated vasodilation from ANG II: overnight pre-treatment, ANG II 10 nM 30 min
Description: (§1) Microvessels were dissected from surgical discard tissues, predominantly consisting of adipose. Only vessels with a diameter of less than 300 micrometers were selected for further study. All microvessels were obtained from discarded surgical tissues, in accordance with an Institutional Review Board approved protocols (PRO00000114, PRO00010828, PRO00001094) at the Medical College of Wisconsin, Milwaukee, Wis.
(§2) After dissection, vessels were incubated overnight in complete endothelial cell media, supplemented with 5% fetal bovine serum (Lonza) with or without peptides as described. Following overnight incubation, peptides were washed out and vessels were cannulated and transferred to physiological salt solution. A video microscopy setup enabled monitoring of vessels in real time. Vessels were pre-constricted with endothelin-1 (ET-1) at a dose range of 0.1-1 nM. Only vessels capable of constricting at least 20% from baseline were included in the study. Flow-mediated dilation (FMD) and Ach-induced dilation were then evaluated, followed by evaluation of endothelium-independent dilation to papaverin. After establishing this baseline, vessels were pre-constricted again with ET-1 and dilator curves repeated in the presence of Angiotensin II (ANG II), as described below.
FMD was evaluated by adjusting the heights of two reservoirs in equal and opposite directions to generate flow by altering vessel central pressure. After each change in pressure gradient, vessel diameter was measured and assessed using video microscopy. Prior to measuring FMD, all vessels studied were pre-constricted using endothelin-1.
(§3) Baseline vessel parameters, including ability to dilate in response to FMD, as described above were assessed. Following assessment, vessels were treated with ANG II at a final concentration of 10 nM for 30 minutes before FMD and response to ACh was re-assessed.

[2] = test system: human microvessels; assay: ACh-induced dilation of isolated human microvessels with or without ANG II challenge; details: for protection of ACh-induced vasodilation from ANG II: overnight pre-treatment, ANG II 10 nM 30 min
Description: as §1, §2, §3

[3] = test system: human microvessels; assay: Uptake of 5-FAM labeled peptide by isolated human microvessels (microscopy); details: 10 uM, 8 h
Description: (§4) FIGS. 2A-2B. (A) Dissected human microvessels are shown. The top panels are brightfield images, while the bottom three panels are images of the same vessels under laser excitation with a filter to visualize emission from 5-FAM. Vessels were treated with 5-FAM labeled peptide (nucXTERT-W) at a 10 uM concentration for 8 hours (h), or left untreated (control). (B) H1299 non-small cell lung carcinoma cells were seeded onto slides and treated with 0, 50, or 100 μM 5-FAM labeled nucXTERT-W for 8 h. DAPI=blue; 5-FAM labeled peptide=green.
Peptide synthesis was conducted by GeneMed Synthesis (San Antonio, Tex.). All peptide sequences were verified by mass spectrometry, and were only used at a purity of greater than 95%. Lyophilized peptides were stored at −20 degrees Celsius. Given the charge properties of the peptides used in these studies, phosphate buffered saline (PBS) was selected as the solvent of choice to dissolve all peptides used. […]
One of the first hurdles that required consideration when evaluating the ability of novel peptides to alter telomerase localization is their ability to be internalized by living tissues. nucXTERT was labeled with 5-carboxyfluorescein (5-FAM). Isolated human microvessels incubated with the 5-FAM labeled peptide were analyzed by microscopy. […]

[4] = test system: H1299 non-small cell lung carcinoma cells; assay: Uptake of 5-FAM labeled peptide by H1299 cells (microscopy); type: cell-based, human; details: 50 or 100 μM, 8 h
Description: as §4
The NCI-H1299 cell line was used for the cell culture experiments described in this manuscript. Cells were cultured in RPMI (Invitrogen) supplemented with 10% fetal bovine serum (Sigma).
One of the first hurdles that required consideration when evaluating the ability of novel peptides to alter telomerase localization is their ability to be internalized by living tissues. nucXTERT was labeled with 5-carboxyfluorescein (5-FAM). Isolated human microvessels incubated with the 5-FAM labeled peptide were analyzed by microscopy. Robust signal is present in vessels pulsed with the peptide, while vessels not treated with peptide have no signal. […] Since peptide is taken up by vessels, it was possible to study the effect of peptide treatment on vessel physiology, using human microvessels as described in the methods. […]

[5] = test system: human microvessels of healthy donors; assay: Mechanism of FMD (L-NAME / PEG-Catalase) in microvessels from healthy (non-CAD) donors
Description: (§5) Live human microvessels were dissected from adipose from individuals with clinically confirmed coronary artery disease (CAD). Vessels were treated with nucXTERT in the presence of either vehicle or L-NAME or PEG-Catalase. Response to pressure gradient (flow) stimulus was evaluated. Microvessels from the adipose of healthy human donors was treated with either vehicle or mitoXTERT with or without NG-nitro-L-arginine methyl ester (L-NAME) or PEG-Catalase. The ability of the vessels to dilate in response to a pressure gradient (flow) was assessed.
FIGS. 7A-7C show dose titration of PEGylated nucXTERT-E in isolated vessel studies. nucXTERT with S→E substitution was PEGylated at the C-terminus to increase bio stability and cell permeability. Effective doses from 10 μM to 1 nM were tested. PEGylated peptide could be titrated down to 1 nM with vascular protective effects. […] N=3-4.
(§6) Dependence of vessels on NO versus hydrogen peroxide signaling in dilation was assessed using the pharmacologic agents Nw-nitro-L-arginine methyl ester (L-NAME; 100 μmol/L) and polyethylene glycol-catalase (PEG-catalase; 500 U/mL), respectively, where described.

[6] = test system: human microvessels from individuals with coronary artery disease (CAD); assay: Mechanism of FMD (L-NAME / PEG-Catalase) in microvessels from donors with coronary artery disease; details: vessels pretreated with peptide
Description: as §5, §6
At baseline, these vessels respond to vasodilatory stimuli through the use of H2O2 as a signaling mechanism to enable dilation. Treatment of vessels with PEG-Catalase, a scavenger of H2O2 effectively attenuates vasodilation. […] In vessels from subjects with CAD, H2O2 represents the dominant vasodilator.

[7] = test system: ANG II induced endothelial dysfunction; assay: In vivo ANG II infusion model of hypertension and endothelial dysfunction; design: species or system mice
Description: Mice were treated with commonly used stressors to induce hypertension and endothelial dysfunction. The fast pressor dose of ANG II (1000 ng/kg/min) was infused via osmotic mini-pump for 14 days. A subgroup of animals was co-treated with nucXTERT (30 μg/day via osmotic mini-pump) in addition to ANG II, for the same duration and using the same delivery system. Curves were compared to historic controls (vehicle). […] Smooth muscle-dependent dilation in response to vasodilator papaverin was not effected (data not shown). * P<0.05 vs. Vehicle one way ANOVA RM, N=5).
To test in vivo effects of nucXTERT mice were treated with commonly used stress to induce hypertension and endothelial dysfunction. The fast pressor dose of ANG II (1000 ng/kg/min) was infused via osmotic minipump for 14 days. A subgroup of animals was co-treated with nucXTERT (30 μg/day via osmotic mini pump) in addition to ANG II, for the same duration and using the same delivery system. Curves were compared to historic controls (vehicle). […] Smooth muscle dependent dilation to papaverin was not effected (data not shown).

[8] = 30 μg/day via osmotic mini pump, 14 days, ANG II 1000 ng/kg/min

For “RRRGGEASRSLPLPKRPRR (phosphomimetic nucXTERT-E) [phosphomimetic containing a glutamic acid substitution at position 227]”, the “baseline vessel constriction, % of maximum diameter” value [1] was 48±18%, the “protection of flow-mediated vasodilation from ANG II” value [1] was “prevents ANG II-induced endothelial dysfunction” and the “protection of ACh-induced vasodilation from ANG II” value [2] was “prevents ANG II-induced endothelial dysfunction”.

With “RRRGGAASRSLPLPKRPRR (phospho-deficient nucXTERT-A)” the “baseline vessel constriction, % of maximum diameter” value [1] was 53±12%, the “protection of flow-mediated vasodilation from ANG II” value [1] was “does not protect vessels from attenuation of vasodilator capacity” and the “protection of ACh-induced vasodilation from ANG II” value [2] was “does not protect vessels from attenuation of vasodilator capacity”.

`CC(C)C[C@H](NC(=O)[C@H](CO)NC(=O)[C@H](CCCNC(=N)N)NC(=O)[C@H](CO)NC(=O)[C@H](C)NC(=O)[C@H](CO)NC(=O)CNC(=O)CNC(=O)[C@H](CCCNC(=N)N)NC(=O)[C@H](CCCNC(=N)N)NC(=O)[C@H](CCCNC(=N)N)NC(=O)c1ccc2c(c1)C(=O)OC21c2ccc(O)cc2Oc2cc(O)ccc21)C(=O)N1CCC[C@H]1C(=O)N[C@@H](CC(C)C)C(=O)N1CCC[C@H]1C(=O)N[C@@H](CCCCN)C(=O)N[C@@H](CCCNC(=N)N)C(=O)N1CCC[C@H]1C(=O)N[C@@H](CCCNC(=N)N)C(=O)N[C@@H](CCCNC(=N)N)C(=O)O` [5-FAM labeled peptide] (5FAM-RRRGGSASRSLPLPKRPRR-OH; N-terminus and C-terminus assumed) was tested, and the “5-FAM signal in vessels pulsed with peptide (uptake by living tissue)” value [3] was “Robust signal” and the “uptake of labeled peptide into cells” value [4] was “effectively traffics into the cell”.

In the case of `C/C(=C\C(=O)Nc1ccccc1C(=O)O)c1ccc2ccccc2c1` [BIBR1532, reference compound], the “vasodilation in response to flow stimulus” value ([1]; overnight treatment, no ANG II) is reported as “continue to dilate in response to flow stimulus” and the “vasodilation in response to acetylcholine” value ([2]; overnight treatment, no ANG II) is reported as “effectively eliminates vasodilation in response to acetylcholine”.

“Ac-CGGRRRGGEASRSLPLPKRPRR-peg12-amide (Ac-CGGRRRGGEASRSLPLPKRPRR-{PEG12′-NH2}) [PEGylated peptide, nucXTERT with S→E substitution PEGylated at the C-terminus]” was tested, and the “lowest dose with vascular protective effects (dose titration)” value ([1]; doses from 10 μM to 1 nM tested) was 1 nM, the “protection of flow-mediated vasodilation from ANG II” value [1] was “protected against ANG II induced endothelial dysfunction” and the “mechanism of FMD in non-CAD vessels (L-NAME inhibitable)” value ([5]; non-CAD vessels) was “did not alter”.

In the case of “RRRGGSASRSLPLPKRPRR (listed as Homo sapiens) [nucXTERT]”, the “protection of flow-mediated vasodilation from ANG II” value [1] is reported as “not impacted by ANG II treatment”, the “protection of ACh-induced vasodilation from ANG II” value [2] is reported as “not impacted by ANG II treatment” and the “effect of PEG-Catalase on dilation responses in CAD vessels” value [6] is reported as “no longer inhibits dilation responses”. For the same compound, the “main mechanism of FMD in CAD vessels” value [6] was “NO is restored as the main mechanism of FMD”, the “FMD under ANG II” value [7, 8] was “prevented onset of ANG II induced endothelial dysfunction” and the “agonist (ACh) induced endothelium-dependent dilation under ANG II” value [7, 8] was “prevented onset of ANG II induced endothelial dysfunction”. The “smooth muscle dependent dilation to papaverin” value ([7]; data not shown) was “not effected”.

“MPRAPRCRAVRSLLRSHYRE (listed as Homo sapiens) [mitoXTERT, decoy peptide containing regions of the telomerase MLS]” was tested, and the “protection of flow-mediated vasodilation from ANG II” value [1] was “no protection of the endothelium from ANG II stress”, the “protection of ACh-induced vasodilation from ANG II” value [2] was “no protection of the endothelium from ANG II stress” and the “mechanism of dilation in healthy vessels” value ([5]; treated with peptide, with or without L-NAME or PEG-Catalase) was “from NO-mediated dilation to H2O2-dependent dilation”.
